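Interpolation was linear, between the two tested concentrations surrounding the appropriate level; five concentrations were tested over 48 hours in 96-well plates. GI50 = concentration required for 50% inhibition of growth. The concentration for full growth arrest is given as TGI.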
What was measured:
Test in all cases: DTP human tumour cell line panel, 48 h
U251 CNS = system: U251 CNS
HOP-62 NSCLC = system: HOP-62 NSCLC
CAKI-1 renal = system: CAKI-1 renal
HCT-116 colon = system: HCT-116 colon
K-562 leukemia = system: K-562 leukemia
NCI/ADR-RES ovarian = system: NCI/ADR-RES ovarian
RPMI-8226 leukemia = system: RPMI-8226 leukemia
SF-295 CNS = system: SF-295 CNS
MDA-MB-435 = system: MDA-MB-435
MCF7 breast = system: MCF7 breast
NCI-H460 lung = system: NCI-H460 lung
SF-268 CNS = system: SF-268 CNS
DU-145 prostate = system: DU-145 prostate
T-47D breast = system: T-47D breast
SK-MEL-2 melanoma = system: SK-MEL-2 melanoma
SK-OV-3 ovarian = system: SK-OV-3 ovarian
SK-MEL-28 melanoma = system: SK-MEL-28 melanoma
NCI-H226 lung = system: NCI-H226 lung
OVCAR-4 ovarian = system: OVCAR-4 ovarian
HCT-15 colon = system: HCT-15 colon
IGROV1 ovarian = system: IGROV1 ovarian
UO-31 renal = system: UO-31 renal
SNB-75 CNS = system: SNB-75 CNS
HT29 colon = system: HT29 colon
UACC-257 melanoma = system: UACC-257 melanoma
HCC-2998 colon = system: HCC-2998 colon
BT-549 breast = system: BT-549 breast
KM12 colon = system: KM12 colon
TK-10 renal = system: TK-10 renal
786-0 renal = system: 786-0 renal
OVCAR-5 ovarian = system: OVCAR-5 ovarian
A498 renal = system: A498 renal
MDA-MB-231 breast = system: MDA-MB-231 breast
HOP-92 NSCLC = system: HOP-92 NSCLC
A549 NSCLC = system: A549 NSCLC
ACHN renal = system: ACHN renal
SNB-19 CNS = system: SNB-19 CNS
RXF 393 renal = system: RXF 393 renal
OVCAR-8 ovarian = system: OVCAR-8 ovarian
HL-60(TB) leukemia = system: HL-60(TB) leukemia
EKVX NSCLC = system: EKVX NSCLC
HS 578T breast = system: HS 578T breast
SR leukemia = system: SR leukemia
PC-3 prostate = system: PC-3 prostate
MOLT-4 leukemia = system: MOLT-4 leukemia
UACC-62 melanoma = system: UACC-62 melanoma
SF-539 CNS = system: SF-539 CNS
CCRF-CEM leukemia = system: CCRF-CEM leukemia
OVCAR-3 ovarian = system: OVCAR-3 ovarian
COLO 205 colon = system: COLO 205 colon

For `Fc1ccc(-c2cc3nc(C(Cl)Cl)nc(-c4ccccc4)n3n2)cc1`, the GI50 (U251 CNS) was 0.984 µM, the TGI (U251 CNS) was 2.59 µM and the GI50 (HOP-62 NSCLC) was 1.48 µM. The TGI (HOP-62 NSCLC) was 3.72 µM, the GI50 (CAKI-1 renal) was 1.82 µM and the TGI (CAKI-1 renal) was 6.2 µM. For the same compound, the GI50 (HCT-116 colon) was 1.68 µM, the TGI (HCT-116 colon) was 4.84 µM and the GI50 (K-562 leukemia) was 2.58 µM. The TGI (K-562 leukemia) was greater than 100 µM, the GI50 (NCI/ADR-RES ovarian) was 1.43 µM and the TGI (NCI/ADR-RES ovarian) was 6.21 µM. The GI50 (RPMI-8226 leukemia) was 2.2 µM, the TGI (RPMI-8226 leukemia) was 10 µM and the GI50 (SF-295 CNS) was 2.21 µM. It also gave a TGI (SF-295 CNS) of 5.63 µM, a GI50 (MDA-MB-435) of 1.81 µM and a TGI (MDA-MB-435) of 3.77 µM. The GI50 (MCF7 breast) was 0.673 µM, the TGI (MCF7 breast) was 7.37 µM and the GI50 (NCI-H460 lung) was 0.513 µM. The TGI (NCI-H460 lung) was 2.07 µM, the GI50 (SF-268 CNS) was 1.81 µM and the TGI (SF-268 CNS) was 5.21 µM. The GI50 (DU-145 prostate) was 0.411 µM, the TGI (DU-145 prostate) was 2.33 µM and the GI50 (T-47D breast) was 1.86 µM. For the same compound, the TGI (T-47D breast) was 5.99 µM, the GI50 (SK-MEL-2 melanoma) was 4.46 µM and the TGI (SK-MEL-2 melanoma) was greater than 100 µM. For the same compound, the GI50 (SK-OV-3 ovarian) was 2.19 µM, the TGI (SK-OV-3 ovarian) was 5.13 µM and the GI50 (SK-MEL-28 melanoma) was 2.01 µM. It also gave a TGI (SK-MEL-28 melanoma) of 3.81 µM, a GI50 (NCI-H226 lung) greater than 100 µM and a TGI (NCI-H226 lung) greater than 100 µM. The GI50 (OVCAR-4 ovarian) was 2.15 µM, the TGI (OVCAR-4 ovarian) was 7.32 µM and the GI50 (HCT-15 colon) was 1.35 µM. The TGI (HCT-15 colon) was 6.43 µM, the GI50 (IGROV1 ovarian) was 4.08 µM and the TGI (IGROV1 ovarian) was greater than 100 µM. For the same compound, the GI50 (UO-31 renal) was 1.73 µM, the TGI (UO-31 renal) was 4.2 µM and the GI50 (SNB-75 CNS) was 7.55 µM. The TGI (SNB-75 CNS) was greater than 100 µM, the GI50 (HT29 colon) was 0.737 µM and the TGI (HT29 colon) was 2.67 µM. For the same compound, the GI50 (UACC-257 melanoma) was 2.11 µM, the TGI (UACC-257 melanoma) was 4.23 µM and the GI50 (HCC-2998 colon) was 1.18 µM. For the same compound, the TGI (HCC-2998 colon) was 2.55 µM, the GI50 (BT-549 breast) was 5.44 µM and the TGI (BT-549 breast) was greater than 100 µM. The GI50 (KM12 colon) was 1.59 µM, the TGI (KM12 colon) was 4.72 µM and the GI50 (TK-10 renal) was 2.13 µM. It also gave a TGI (TK-10 renal) of 5.26 µM, a GI50 (786-0 renal) of 6.33 µM and a TGI (786-0 renal) greater than 100 µM. The GI50 (OVCAR-5 ovarian) was 2.29 µM, the TGI (OVCAR-5 ovarian) was 6.77 µM and the GI50 (A498 renal) was 1.81 µM. It also gave a TGI (A498 renal) of 3.55 µM, a GI50 (MDA-MB-231 breast) of 1.76 µM and a TGI (MDA-MB-231 breast) of 5.76 µM. It also gave a GI50 (HOP-92 NSCLC) of 1.9 µM, a TGI (HOP-92 NSCLC) of 4.81 µM and a GI50 (A549 NSCLC) of 1.1 µM. The TGI (A549 NSCLC) was 2.6 µM, the GI50 (ACHN renal) was 0.777 µM and the TGI (ACHN renal) was 3.02 µM. For the same compound, the GI50 (SNB-19 CNS) was 1.58 µM, the TGI (SNB-19 CNS) was 6.6 µM and the GI50 (RXF 393 renal) was 1.21 µM. The TGI (RXF 393 renal) was 2.55 µM, the GI50 (OVCAR-8 ovarian) was 1.41 µM and the TGI (OVCAR-8 ovarian) was 3.87 µM. For the same compound, the GI50 (HL-60(TB) leukemia) was 0.507 µM, the TGI (HL-60(TB) leukemia) was 74.6 µM and the GI50 (EKVX NSCLC) was 2.04 µM. The TGI (EKVX NSCLC) was 5.58 µM, the GI50 (HS 578T breast) was 3.01 µM and the TGI (HS 578T breast) was 9.19 µM. The GI50 (SR leukemia) was 2.17 µM, the TGI (SR leukemia) was greater than 100 µM and the GI50 (PC-3 prostate) was 1.75 µM. It also gave a TGI (PC-3 prostate) of 4.39 µM, a GI50 (MOLT-4 leukemia) of 3.18 µM and a TGI (MOLT-4 leukemia) greater than 100 µM. For the same compound, the GI50 (UACC-62 melanoma) was 2.47 µM, the TGI (UACC-62 melanoma) was 8.12 µM and the GI50 (SF-539 CNS) was 1.97 µM. The TGI (SF-539 CNS) was 5.12 µM, the GI50 (CCRF-CEM leukemia) was 6.5 µM and the TGI (CCRF-CEM leukemia) was greater than 100 µM. For the same compound, the GI50 (OVCAR-3 ovarian) was 1.53 µM, the TGI (OVCAR-3 ovarian) was 3.1 µM and the GI50 (COLO 205 colon) was 1.15 µM. For the same compound, the TGI (COLO 205 colon) was 2.5 µM.

From PubChem BioAssay (NCI)
